According to patent publication US6319952A, “Compositions and methods for reversibly increasing permeability of biomembranes” (D-Pharm Ltd., priority 1997, dated 2001):

Key:
[1] = tested on: blood-brain barrier (BBB); experiment: Reversibility of effect of M 3/14 on BBB permeability (Evan's Blue absorbance of brain extract); format: in vivo, rat (male Sprague-Dawley); settings: for Quantity EB: 620 nm, per gram wet weight
Protocol: (§1) The experiments were carried out on male Sprague-Dawley rats weighing 250-320 gr. They were anesthetized with Rampun-Imalgen. The right common carotid artery was exposed.
The test compounds were dissolved in 0.1M phosphate buffered physiological saline (pH=7.4) at the following test concentrations: 1.6; 8; 20; 40; 200 and 1000 μg/ml. […] The resulting pH of the test solutions was in the range of 8.0 to 8.5, and contols for the pH effect were performed up to pH 9.
(§2) The test compound was infused into the right common carotid artery at a rate of 6 ml/min. for 30 s. The control rats were infused with buffer. Evan's Blue (EB) solution at a concentration of […] (2 g Evan's Blue, 0.9 g NaCl in 100 ml water) was injected intravenously 50 minutes prior to the termination of the experiment.
(§3) At the end of the experimental time period the animals were perfused with 100 ml of saline solution through the heart and decapitated. The degree of BBB opening, in terms of extravasation of Evan's Blue albumin, was graded on the basis of visual assessment of the degree of staining of the brain ato the method of Rapoport et al. (Rapoport et al., 1980, Amer. J. Physiol. 258, 421-431), and the results are presented in Tables 1 and 2.
A second set of experiments was designed to determine whether the BBB disruption is reversible or irreversible after M 3/14 injection. The extravasation of Evan's Blue-albumin was evaluated at different time points between 3 h and 72 h after M 3/14 injection in concentrations of 8 and 20 μg/ml.
The experiment was conducted on an average of three individual animals per dose per time point. The brains were removed and extracted in dimethylformamide for […]. at room temp. The extract was centrifuged and the supernatant collected and measured for absorbance at 620 nm. The results are presented per gram wet weight of the tissue.

[2] = tested on: bovine brain capillary endothelial cells in co-culture with astrocytes; experiment: Paracellular permeability (inulin and sucrose clearance), in vitro coculture model of the BBB; format: cell-based
From the text: The alterations in barrier function on bovine brain capillary endothelial cells in co-culture were investigated. To provide an "in vitro" system for studying brain capillary functions, a process of coculture was used that closely mimics the "in vivo" situation by culturing brain capillary endothelial cells on one side of a filter and astrocytes on the other (Dehouck, et al. (1992) J. Neurochemistry 58:1790-1797). Endothelial cells form a confluent monolayer in 12 days.
Endothelial cells are cultured in the upper compartment on the filter and astrocytes in the lower compartment on the plastic of the Petri dish.
Under these conditions, endothelial cells retain all the endothelial markers (factor VIII--related antigen, nonthrombogenic surface, production of prostacyclin, angiotensin converting enzyme activity) and the characteristics of the blood-brain barrier (presence of tight junctions, paucity of pinocytotic vesicles, monoamine oxidase activity, γ-glutamyltranspeptidase activity).
Two different time points were tested, namely 1 hr and 24 hrs of incubation with DP-BFA, and five different concentrations per time point: 0.04; 0.08; 0.16; 0.24; 0.32 mg/ml corresponding to 0.125; 0.25; 0.5; 0.75; 1×10^-3 M.
DP-BFA is stored in a hermetically sealed dark vial filled with Argon at 5° C. for up to 3 months. The drug quantity was taken out the vial cap with a Teflon spatula. The compound was dissolved in sodium carbonate-sodium bicarbonate buffered saline solution adjusted to pH 8.8-9 at 37° C. A stock solution (12.8 mg/ml) was prepared and kept at 37° C. for 15 minutes. The solution was protected from light by covering it with aluminium foil. […] The desired concentration of DP-BFA was obtained by diluting the stock solution with the buffer. The solutions were filtered through a […] filter. The DP-BFA solutions were kept at 37° C. in vials protected from light, for no more than 6 hours.
Stock solution of DP-BFA was added directly to the coculture medium (upper compartment) in order to obtain a dilution of 1:40.
Permeability studies were carried out on the monolayer of endothelial cells, using two paracellular tracers: inulin-^3 H and sucrose-^14C.
To obtain a concentration-dependent transport parameter, the clearance principle was used. For each time, the increment in cleared volume between successive sampling events was calculated by dividing the amount of transported solute by the donor chamber concentration. The total volume cleared at each point was calculated by summing the incremental cleared volumes up to the given time point: [formula]
where [C]L is the initial luminal tracer concentration, [C]A the abluminal tracer concentration, and VA the volume of the abluminal chamber. During the 45-mim experiment, the clearance volume increased linearly with time. The average volume cleared was plotted versus time, and the slope was estimated by linear regression analysis to give the mean and the SE to the estimate. The slope of the clearance curves for the coculture was denoted PSt, where PS is the permeability x surface area product (in microliters per minute). The slope of the clearance curve for the control filter was denoted PSf.
The PS value for the endothelial monolayer (PSe) was calculated from [formula]
The PSe values were divided by the surface area of the Millicell-PC (4.2 cm^2) to generate the endothelial permeability coefficient (Pe, in centimeters per minute).
In that case, the results are presented as clearance (μl) in function of time (min) and clearance at 45 minutes for each condition.

[3] = tested on: blood-brain barrier (BBB); experiment: Effect of branched chain fatty acids on BBB permeability by qualitative Evan's Blue (EB) evaluation in rats; format: in vivo, rat (male Sprague-Dawley)
Protocol: Evaluation of Effect of Branched Fatty Acids on Blood-brain Barrier Permeability
as §1
The test compounds were dissolved in 0.1M phosphate buffered physiological saline (pH=7.4) at the following test concentrations: 1.6; 8; 20; 40; 200 and 1000 μg/ml.
as §2
In the case of 45 min experiment, five minutes prior to the infusion of the tested material, 4 ml/kg body wt dose of Evans Blue solution was injected intravenously.
as §3
The results presented are qualitative with four degrees of Evan's Blue extravasation according to Rapoport et al. Minus signs represents no staining and three plus signs represent maximal staining.

[4] = 0.08 mg/ml, 24 hours incubation

CCCCCCCCCCCCCCC(CCC)C(=O)O (stereo not shown) [M 3/14, 2-propylhexadecanoic acid]
Quantity EB ([1]; 8 μg/ml, 3 h): 0.087 absorbance units
Quantity EB ([1]; 8 μg/ml, 24 h): 0.074 absorbance units
Quantity EB ([1]; 20 μg/ml, 3 h): 0.129 absorbance units
Quantity EB ([1]; 20 μg/ml, 24 h): 0.129 absorbance units
Quantity EB ([1]; 20 μg/ml, 72 h): 0.015 absorbance units
duration of effect on BBB permeability ([1]; depending on the dose used (8 and 20 μg/ml)): exceed 24 hours
increase in permeability of the monolayer for inulin (clearance at 45 minutes) [2, 4]: 179%
increase in permeability of the monolayer for sucrose (clearance at 45 minutes) [2, 4]: 199%
paracellular breakdown (opening of the tight junctions) ([2]; 0.08 mg/ml, 24 hrs): paracellular breakdown (opening of the tight junctions)
increase in permeability of the monolayer for inulin (clearance at 45 minutes) ([2]; 0.16 mg/ml, 1 hour incubation): 636%
increase in permeability of the monolayer for sucrose (clearance at 45 minutes) ([2]; 0.16 mg/ml, 1 hour incubation): 679%
paracellular breakdown (opening of the tight junctions) ([2]; 0.16 mg/ml, 1 hr): paracellular breakdown (opening of the tight junctions)
Visual EB ([3]; 1.6 μg/ml (5 μM/ml), 180 min): -
Visual EB ([3]; 8 μg/ml (25 μM/ml), 180 min): +
Visual EB ([3]; 20 μg/ml (62.5 μM/ml), 180 min): +
Visual EB ([3]; 40 μg/ml (125 μM/ml), 45 min): ++
Visual EB ([3]; 40 μg/ml (125 μM/ml), 180 min): ++
Visual EB ([3]; 125 μM, 180 min, intracarotid infusion): ++
Visual EB ([3]; 200 μg/ml (625 μM/ml), 45 min): +++
Visual EB ([3]; 625 μM, 45 min, intracarotid infusion): +++
Visual EB ([3]; 1000 μg/ml (3125 μM/ml), 45 min): +++
BBB permeability enhancement, potency ranking ([3]; Table 1 compounds): most potent BBB permeability enhancer
